In patent US20240279338A1, “Combination Treatment of Cancer” (Ares Trading S.A., priority 2021, published 2024):

What was measured:
EMT6 cells = assay: CD73hi EMT6 syngeneic tumor model, tumor growth; type: in vivo, mice; details: Day 10 post treatment initiation, Compound A 300 mg/kg po BID alone
Method: (§1) Female BALB/c mice were inoculated with 2.5×10^5 EMT6 cells into the right mammary fat pad and were treated with Compound A (300 mg/kg po, BID), bintrafusp alfa (24.6 mg/kg iv, days 0, 3, 6), Compound A+bintrafusp alfa, when average tumor volume reached approximately 60 mm^3. Vehicle (po, BID) and isotype control antibody injections (20 mg/kg iv, days 0, 3, 6) were used as controls. (A) Average tumor volumes with SEM, and (B) individual tumor volumes are presented. Tumor volume data were analyzed using two-way ANOVA followed by Tukey's multiple comparison test.
(§2) To determine whether combined treatment with the dual A2A/A2B receptor inhibitor “Compound A” ((S)-7-Oxa-2-aza-spiro[4.5]decane-2-carboxylic acid [7-(3,6-dihydro-2H-pyran-4-yl)-4-methoxy-thiazolo[4,5-c]pyridin-2-yl]-amide) and bintrafusp alfa can inhibit tumor growth in either CD73^hi or CD73^low models, tumor growth was monitored in […] syngeneic tumor models. Animals were inoculated with either CD73^hi tumor cells (4T1, E0771, or EMT6) or with CD73^low MC38, H22 or MBT2 tumor cells. For all tumor models, animals were treated with either 1) vehicle and isotype, 2) Compound A and isotype, 3) vehicle and bintrafusp alfa, or 4) Compound A and bintrafusp alfa. […]

MBT2 cells = assay: CD73low MBT2 syngeneic tumor model, tumor growth; type: in vivo; details: MBT2, female C3H mice; Day 14; Compound A 300 mg/kg po BID; bintrafusp alfa 24.6 mg/kg iv days 0, 3, 6
Method: as §1, with “C3H” for “BALB/c”, “1×10^6 MBT2” for “2.5×10^5 EMT6”, “in” for “into”, “upper flank” for “mammary fat pad”, “53” for “60”
as §2

H22 cells = assay: CD73low H22 syngeneic tumor model, tumor growth; type: in vivo; details: H22, female BALB/c mice; Day 16 post treatment initiation; Compound A 300 mg/kg po BID; bintrafusp alfa 24.6 mg/kg iv days 0, 3, 6
Method: as §1, with “1×10^6 H22” for “2.5×10^5 EMT6”, “in” for “into”, “upper flank” for “mammary fat pad”, “55 mm3.” for “60 mm^3.”
as §2

NT5E (CD73) = assay: RNAseq gene expression in MC38 tumors; type: in vivo, mice; details: bintrafusp alfa 24.6 mg/kg iv, Day 6 post treatment, vs isotype
Method: (§3) FIG. 4: Bintrafusp alfa increases expression of A2B in CD73h adenosine-rich 4T1 tumor model, but not in CD73^low adenosine-low MC38 tumor model. For the 4T1 tumor model, female BALB/c mice were inoculated with 2×10^5 4T1 cells into the right mammary fat pad. For the MC38 tumor model, female C57BL/6 mice were inoculated subcutaneously in the right flank with MC38 cells (1×10^6). Animals in both studies were randomized into the groups and treatments started when the average tumor size reached approximately 100-150 mm^3. For both models, there were 15 mice in each group. The animals were treated with isotype control (20 mg/kg, iv) or bintrafusp alfa (24.6 mg/kg, iv) on days 0, 1, and 2. Tumors were harvested on Day 6 post treatment start, flash frozen, and used for RNASeq analysis. Gene expression levels of (A) NT5E, (B) ADORA2A (A2A), and (C) ADORA2B (A2B) are presented as mean±SEM. P-values were calculated using two-way ANOVA.
(§4) To determine whether bintrafusp alfa treatment modulates expression of A2A or A2B receptors or NT5E (gene encoding CD73), mice with established 4T1 and MC38 tumors were treated with 20 mg/kg isotype antibody or 24.6 mg/kg bintrafusp alfa.

ADORA2A (A2A) = assay: RNAseq gene expression in MC38 tumors; type: in vivo, mice; details: bintrafusp alfa 24.6 mg/kg iv, Day 6 post treatment, vs isotype
Method: as §3, §4

Compound	tumor growth inhibition (EMT6 cells)	tumor growth inhibition, T/C (MBT2 cells) [%]	tumor growth inhibition, T/C (H22 cells) [%]	expression of NT5E (CD73) (NT5E (CD73))	expression of A2A (ADORA2A (A2A))
COc1ncc(C2=CCOCC2)c2sc(NC(=O)N3CC[C@@]4(CCCOC4)C3)nc12 [Compound A, (S)-7-Oxa-2-aza-spiro[4.5]decane-2-carboxylic acid [7-(3,6-dihydro-2H-pyran-4-yl)-4-methoxy-thiazolo[4,5-c]pyridin-2-yl]-amide]	did not show tumor growth inhibition	–	–	–	–
bintrafusp alfa: anti-PD-L1:TGFβRII fusion protein, CAS 1918149-01-5; human IgG1 antibody against PD-L1 fused to extracellular domain of human TGF-β receptor II	–	29.9	34.4	no changes	no changes
